Results taken from ChEMBL document CHEMBL5260837, “Recent advances in small molecule based cancer immunotherapy” (Eur J Med Chem, 2018).
Blank lines part the entries; values can stand above or below the compound they belong to.

Experiments:
[1] = biological target: T1, Arginase-2, mitochondrial (Homo sapiens, UniProt P78540); assay: Competitive inhibition of human ARG2
T1 sequence (P78540 whole entry): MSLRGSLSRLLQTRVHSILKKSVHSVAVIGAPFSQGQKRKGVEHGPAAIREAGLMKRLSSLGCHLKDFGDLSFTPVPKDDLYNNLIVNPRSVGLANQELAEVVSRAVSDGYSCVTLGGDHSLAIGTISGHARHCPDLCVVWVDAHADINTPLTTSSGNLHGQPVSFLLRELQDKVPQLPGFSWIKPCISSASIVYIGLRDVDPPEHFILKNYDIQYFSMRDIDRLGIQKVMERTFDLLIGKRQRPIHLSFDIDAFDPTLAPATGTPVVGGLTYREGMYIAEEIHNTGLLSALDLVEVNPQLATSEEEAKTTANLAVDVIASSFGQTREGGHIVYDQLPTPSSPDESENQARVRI

[2] = biological target: Indoleamine 2,3-dioxygenase 1 (Homo sapiens, UniProt P14902); assay: Inhibition of human IDO1
Splenocyte = assay: Antiproliferative activity in mouse splenocyte assessed as inhibition of cell proliferation incubated for 72 hrs by MTT assay; type: functional; parameters: scale not given: the % may be the effect or the level left
[3] = biological target: Programmed cell death protein 1/Programmed cell death 1 ligand 1 (Homo sapiens, UniProt Q15116+Q9NZQ7); assay: Inhibition of PD-1/PD-L1 interaction (unknown origin) incubated for 24 hrs by HTRF assay; type: protein-complex assay
[4] = biological target: T2, Ectonucleoside triphosphate diphosphohydrolase 1 (Homo sapiens, UniProt P49961); assay: Inhibition of human NTPDase1
T2 sequence (P49961 whole entry): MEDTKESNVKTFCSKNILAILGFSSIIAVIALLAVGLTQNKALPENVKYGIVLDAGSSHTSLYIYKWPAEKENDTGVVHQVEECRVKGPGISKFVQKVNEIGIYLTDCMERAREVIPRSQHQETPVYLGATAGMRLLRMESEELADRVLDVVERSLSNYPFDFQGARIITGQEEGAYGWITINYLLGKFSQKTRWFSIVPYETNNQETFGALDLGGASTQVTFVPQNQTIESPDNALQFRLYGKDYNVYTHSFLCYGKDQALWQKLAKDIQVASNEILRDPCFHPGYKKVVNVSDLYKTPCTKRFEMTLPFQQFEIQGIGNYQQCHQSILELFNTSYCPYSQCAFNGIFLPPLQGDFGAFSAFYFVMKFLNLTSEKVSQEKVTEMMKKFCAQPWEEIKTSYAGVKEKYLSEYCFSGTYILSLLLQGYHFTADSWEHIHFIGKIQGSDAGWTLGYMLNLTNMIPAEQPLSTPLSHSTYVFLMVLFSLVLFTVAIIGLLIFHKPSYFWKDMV

Arginase-1 = biological target: T3, Arginase-1 (Homo sapiens, UniProt P05089); assay: Inhibition of human ARG1
T3 sequence (P05089 whole entry): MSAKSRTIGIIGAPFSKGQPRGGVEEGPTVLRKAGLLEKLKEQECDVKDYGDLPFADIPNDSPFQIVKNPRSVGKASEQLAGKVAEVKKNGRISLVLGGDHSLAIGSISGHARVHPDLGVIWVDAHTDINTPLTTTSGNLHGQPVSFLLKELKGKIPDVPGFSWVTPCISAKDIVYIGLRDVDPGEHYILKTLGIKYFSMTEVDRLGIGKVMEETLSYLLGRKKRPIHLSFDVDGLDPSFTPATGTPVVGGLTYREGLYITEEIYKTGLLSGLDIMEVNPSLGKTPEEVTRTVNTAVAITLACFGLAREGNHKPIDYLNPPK

MIA PaCa-2 = assay: Antiproliferative activity against human MIA PaCa-2 cells
[5] = biological target: C-X-C chemokine receptor type 4 (Homo sapiens, UniProt P61073); assay: Antagonist activity at CXCR4 receptor in human MIA PaCa-2 cells assessed as reduction in forskolin-stimulated inhibition of cAMP production; type: cell-based
[6] = Half life in mouse at 2000 mg/kg; type: ADME, organism-based; conditions: in vivo
Toll-like receptor 8 = biological target: T4, Toll-like receptor 8 (Homo sapiens, UniProt Q9NR97); assay: Agonist activity at human TLR8 expressed in HEK293 cells by reporter gene assay
T4 sequence (Q9NR97 whole entry): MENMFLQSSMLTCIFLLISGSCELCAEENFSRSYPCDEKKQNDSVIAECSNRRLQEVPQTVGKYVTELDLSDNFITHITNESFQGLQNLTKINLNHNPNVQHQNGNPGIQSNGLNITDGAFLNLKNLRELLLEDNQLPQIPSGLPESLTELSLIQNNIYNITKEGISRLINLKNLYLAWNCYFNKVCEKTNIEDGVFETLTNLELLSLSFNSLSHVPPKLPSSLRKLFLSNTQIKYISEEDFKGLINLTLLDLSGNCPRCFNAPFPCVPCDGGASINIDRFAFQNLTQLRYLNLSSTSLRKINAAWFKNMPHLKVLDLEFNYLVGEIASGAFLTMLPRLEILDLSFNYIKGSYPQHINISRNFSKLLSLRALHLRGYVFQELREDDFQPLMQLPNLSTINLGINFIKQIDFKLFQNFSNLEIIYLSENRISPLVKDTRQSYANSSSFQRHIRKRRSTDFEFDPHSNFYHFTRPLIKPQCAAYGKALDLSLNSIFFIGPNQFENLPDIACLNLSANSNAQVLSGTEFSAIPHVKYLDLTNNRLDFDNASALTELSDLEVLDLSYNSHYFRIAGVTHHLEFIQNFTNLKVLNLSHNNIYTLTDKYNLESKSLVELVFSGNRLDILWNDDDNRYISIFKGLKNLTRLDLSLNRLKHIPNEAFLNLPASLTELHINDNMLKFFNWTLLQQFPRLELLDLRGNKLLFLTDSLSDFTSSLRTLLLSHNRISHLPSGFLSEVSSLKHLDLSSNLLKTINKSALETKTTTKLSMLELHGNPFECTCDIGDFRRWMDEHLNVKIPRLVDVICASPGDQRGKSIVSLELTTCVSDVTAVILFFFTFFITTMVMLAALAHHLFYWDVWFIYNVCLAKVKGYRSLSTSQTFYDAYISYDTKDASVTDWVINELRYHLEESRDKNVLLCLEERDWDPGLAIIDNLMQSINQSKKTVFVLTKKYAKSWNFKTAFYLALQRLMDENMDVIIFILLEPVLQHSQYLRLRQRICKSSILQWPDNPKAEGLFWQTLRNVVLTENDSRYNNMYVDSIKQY

[7] = Half life in rat; type: ADME; conditions: in vivo
[8] = Oral bioavailability in rat; type: ADME, organism-based; conditions: in vivo

Sequence of Indoleamine 2,3-dioxygenase 1 (P14902 whole entry): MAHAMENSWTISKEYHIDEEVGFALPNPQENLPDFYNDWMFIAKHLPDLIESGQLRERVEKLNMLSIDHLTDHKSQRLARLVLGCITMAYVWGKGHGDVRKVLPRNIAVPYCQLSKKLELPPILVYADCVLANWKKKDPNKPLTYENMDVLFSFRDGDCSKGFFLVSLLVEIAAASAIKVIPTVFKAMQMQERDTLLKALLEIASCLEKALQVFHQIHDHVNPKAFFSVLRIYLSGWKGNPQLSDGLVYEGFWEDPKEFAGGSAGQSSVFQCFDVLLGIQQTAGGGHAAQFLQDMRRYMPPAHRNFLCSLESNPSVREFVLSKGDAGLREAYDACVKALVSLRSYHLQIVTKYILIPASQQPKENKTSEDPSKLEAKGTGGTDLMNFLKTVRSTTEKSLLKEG
Sequence of Programmed cell death protein 1/Programmed cell death 1 ligand 1 (Q15116 whole entry): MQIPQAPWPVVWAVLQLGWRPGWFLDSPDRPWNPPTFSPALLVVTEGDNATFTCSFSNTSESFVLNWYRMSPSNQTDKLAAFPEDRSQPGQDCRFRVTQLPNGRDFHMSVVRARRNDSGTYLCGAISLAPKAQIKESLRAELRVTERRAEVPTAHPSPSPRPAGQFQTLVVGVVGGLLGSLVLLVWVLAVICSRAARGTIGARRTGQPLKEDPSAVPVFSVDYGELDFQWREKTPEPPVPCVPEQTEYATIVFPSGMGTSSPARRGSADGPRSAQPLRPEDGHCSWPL
Sequence of Programmed cell death protein 1/Programmed cell death 1 ligand 1 (Q9NZQ7 whole entry): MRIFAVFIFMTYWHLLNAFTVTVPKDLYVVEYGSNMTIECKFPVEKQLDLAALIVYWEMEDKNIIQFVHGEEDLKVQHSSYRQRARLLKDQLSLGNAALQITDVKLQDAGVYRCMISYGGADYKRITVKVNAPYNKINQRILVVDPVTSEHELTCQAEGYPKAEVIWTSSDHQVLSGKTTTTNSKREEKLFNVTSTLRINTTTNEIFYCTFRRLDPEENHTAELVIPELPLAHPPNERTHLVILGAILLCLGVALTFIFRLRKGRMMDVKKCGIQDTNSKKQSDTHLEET
Sequence of C-X-C chemokine receptor type 4 (P61073 whole entry): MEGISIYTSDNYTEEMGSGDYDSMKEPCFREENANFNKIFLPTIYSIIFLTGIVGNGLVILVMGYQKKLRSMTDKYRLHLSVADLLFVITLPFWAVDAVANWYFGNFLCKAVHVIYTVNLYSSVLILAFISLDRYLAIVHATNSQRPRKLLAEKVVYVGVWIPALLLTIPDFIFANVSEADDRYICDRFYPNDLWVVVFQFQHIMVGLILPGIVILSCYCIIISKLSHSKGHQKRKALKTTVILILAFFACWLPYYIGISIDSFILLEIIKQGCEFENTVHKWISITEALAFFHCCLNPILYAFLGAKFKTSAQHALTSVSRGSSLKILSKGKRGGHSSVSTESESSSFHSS

Compound: NC(=O)C[C@H](N)c1nc([C@@H](N)CO)no1
Activity (Splenocyte): 48.4%

Compound: Cc1c(Nc2cccc3cc(CNCCO)cnc23)cccc1-c1ccccc1
IC50 [3]: < 10 nM

Compound: CN[C@@H](CO)C(=O)N1C[C@H](CCCB(O)O)[C@](N)(C(=O)O)C1
IC50 (Arginase-1): 740 nM

Compound: CCN(CC)CCCC(C)Nc1ccnc2cc(Cl)ccc12 (configuration not stated) [CHLOROQUINE]
IC50 (MIA PaCa-2): 3500 nM
EC50 [5]: 6500 nM

Compound: Cn1cc(C[C@@H](N)C(=O)O)c2ccccc21 [INDOXIMOD]
half-life [6]: 10.5 h

The next lines start with the values.

Ki [1]: 310 nM
Compound: N[C@@H](CSCCB(O)O)C(=O)O

IC50 [2]: 110 nM
Compound: C[C@@]12CCCCC1=C(O)C(=O)c1cc3c(cc12)C(=O)C1=C(C3=O)S(=O)(=O)CCN1

IC50 [4]: 50 nM
Compound: COc1cc(/C=N/c2nc(-c3cc4ccccc4oc3=O)cs2)cc(OC)c1OC

EC50 (Toll-like receptor 8): 100 nM
Compound: CCCN(CCC)C(=O)C1=Cc2ccc(-c3ccc(C(=O)N4CCCC4)cc3)cc2N=C(N)C1 [MOTOLIMOD]

half-life [7]: 0.25 h
bioavailability [8]: 100%
Compound: N=C(NO)NCC[C@H](N)C(=O)O [NOR-NOHA]
